Results on 16 compounds are retold here after patent US9079854B2 (priority 2007, dated 2015).

As usually defined, the inhibition is the relative decrease from the control value, in per cent. By EC50 is commonly meant the concentration giving half of the maximal effect. The Emax is the maximal effect, on the per cent scale that the assay sets.

Read-outs that look alike come from different tables or passages of the source.

For assay [1], the target named is T1, human CB1 (hCB1) receptor (Homo sapiens, UniProt P21554).
T1 construct: expressed in transfected cells; host or cells: CHO (Chinese hamster ovary) cells, membranes
T1 sequence (P21554 whole entry): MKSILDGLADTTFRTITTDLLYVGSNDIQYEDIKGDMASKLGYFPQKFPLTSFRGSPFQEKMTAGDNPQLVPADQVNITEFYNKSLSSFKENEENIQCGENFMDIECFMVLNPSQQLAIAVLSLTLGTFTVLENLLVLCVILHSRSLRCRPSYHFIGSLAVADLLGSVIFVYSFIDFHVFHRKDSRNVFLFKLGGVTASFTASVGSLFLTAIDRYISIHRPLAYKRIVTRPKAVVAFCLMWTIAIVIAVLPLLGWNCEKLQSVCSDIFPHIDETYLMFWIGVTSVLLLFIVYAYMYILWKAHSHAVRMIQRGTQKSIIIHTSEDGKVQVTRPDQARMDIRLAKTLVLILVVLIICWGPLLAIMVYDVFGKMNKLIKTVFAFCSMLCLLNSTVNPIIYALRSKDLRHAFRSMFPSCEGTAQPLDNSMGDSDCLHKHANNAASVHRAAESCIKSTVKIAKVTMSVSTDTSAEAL
In words: CB1 binding assay, competitive binding of [3H]CP 55940. The conditions noted are these: at 1 μM; specific binding of [3H]-CP55940; CHO membranes. The procedure: Cell membrane homogenates (25 μg protein) are incubated for 120 min at 37° C. with 0.5 nM [^3H]CP 55940 (the reference standard [Rinaldi-Carmona, 1996 #1320]) in the absence or presence of the test compound in a buffer containing 50 mM Tris HCl (pH 7.4), 5 mM MgCl2, 2.5 mM EDTA, and 0.3% bovine serum albumin (BSA). […]
(§1) […] [^3H]-CP55940 at a concentration of 0.5 nM and [^3H]-WIN55212 at a concentration of 0.8 nM were used as radioligands for hCB1 and hCB2 assays, respectively. The results are expressed as a percent inhibition of control specific binding. Compounds which displaced the radioligand by more than 50% for either hCB1 or hCB2 receptors were arbitrary chosen for functional activity determination.

Assay [2] deals with T2, hCB2 receptor (Homo sapiens, UniProt P34972).
T2 construct: purchased ES-111-MG; host or cells: CHO membrane extracts
T2 sequence (P34972 whole entry): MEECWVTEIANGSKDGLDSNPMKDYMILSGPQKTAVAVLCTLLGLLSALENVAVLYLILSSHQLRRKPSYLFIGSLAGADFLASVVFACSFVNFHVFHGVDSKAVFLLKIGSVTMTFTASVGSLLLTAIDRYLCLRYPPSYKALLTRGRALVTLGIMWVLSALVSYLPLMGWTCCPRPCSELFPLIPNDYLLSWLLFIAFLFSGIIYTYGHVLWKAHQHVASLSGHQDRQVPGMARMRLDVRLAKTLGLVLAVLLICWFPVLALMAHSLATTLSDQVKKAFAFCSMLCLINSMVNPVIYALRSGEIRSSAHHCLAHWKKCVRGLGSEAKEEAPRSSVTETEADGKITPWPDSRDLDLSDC
The assay can be described thus: CB2 functional assay, [35S]GTP-γ-S binding. Type of assay: biochemical. The procedure:
(§2) A dose response curve was generated at eight concentrations in duplicate on CB1 and CB2 in light of reference agonists.
(§3) Membranes (CB1, ES-110-MG or CB2, ES-111-MG) are mixed with GDP (volume:volume) and incubated for at least […] on ice. In parallel, […] are mixed with the beads (volume:volume) just before starting the reaction. The following reagents are successively added in the wells of an Optiplate: 50 μl of ligand, 20 μl of the membranes:GDP mix, 10 μl of assay buffer for agonist testing and 20 μl of the […]: beads mix. The plates are covered with a topseal, shaken on an orbital shaker for 2 min, and then incubated between 30 to 60 min at room temperature. Then the plates are centrifuged for 10 min at 2000 rpm, incubated at room temperature between 1 to 4 hours and counted for 1 min with a PerkinElmer TopCount reader.
(§4) Functional activity for acyl hydrazone was evaluated using [^35S]GTP-γ-S assay in CHO membrane extracts expressing recombinant hCB1 receptor or hCB2 receptor. The assay relies on the binding of [^35S]GTP-γ-S, a radiolabeled nonhydrolyzable GTP analogue, to the G protein upon binding of an agonist of the G-protein-coupled receptor. In this system, agonists stimulate [^35S]GTP-γ-S binding whereas neutral antagonist have no effect and inverse agonists decrease [^35S]GTP-γ-S basal binding.
(§5) CB1 and CB2 assay data are presented as the mean of two determinations. […] For replicate determinations, the maximum variability tolerated in the test was of ±20% around the average of the replicates.
For orientation: Binding of GTPγS marks nucleotide exchange on a G protein.

Assay [3] deals with T3, human CB2 (hCB2) receptor (Homo sapiens, UniProt P34972).
T3 construct: expressed in transfected cells; host or cells: CHO (Chinese hamster ovary) cells, membranes
T3 sequence (P34972 whole entry): as above
The assay can be described thus: CB2 binding assay, competitive binding of [3H]WIN 55212-2. The note with it: read-out: % inhibition hCB2 receptor, at 1 μM; specific binding of [3H]-WIN55212-2; CHO membranes. The procedure: Cell membrane homogenates (15 μg protein) are incubated for 120 min at 37° C. with 0.8 nM [^3H]WIN 55212-2 (the reference standard [Munro, 1993 #1321]) in the absence or presence of the test compound in a buffer containing 50 mM HEPES/Tris HCL (pH 7.4), 5 mM MgCl2, 2.5 mM EGTA, and 0.1% BSA. Nonspecific binding is determined in the presence of 10 μM WIN 55212-2. After being incubated, the samples are filtered rapidly under vacuum through glass fiber filters (GF/B; Packard) presoaked with 0.3% PEI and rinsed several times with ice-cold buffer containing 50 mM Tris HCl (pH 7.4) and 0.5% BSA using a 96-sample cell harvester (Unifilter; Packard). The filters are dried then counted for radioactivity in a scintillation counter (Topcount; Packard) using a scintillation cocktail (Microscint 0; Packard). The results are expressed as a percentage of the inhibition of the control radioligand-specific binding. The reference standard compounds are tested in each experiment at several concentrations to obtain a competition curve from which its IC50 is calculated.
as §1

The target in assay [4] is CB1 (Homo sapiens, UniProt P21554). The assay can be described thus: CB1 functional assay, [35S]GTP-γ-S binding. The class given is biochemical. More on the design: purchased ES-110-MG; host or cells: CHO membrane extracts. As to the method: as §2, §3, §4, §5
Sequence of CB1 (P21554 whole entry): as the sequence (P21554 whole entry) above
The mark [5] stands for this setting: Table 9, mean of two determinations, read-out: [35S]GTP-γ-S hCB2 EC50 (nM ± SEM).
[6] abbreviates: Table 9, relative to the efficacy of CP 55,940.
Setting [7] is: Table 9, mean of two determinations, read-out: [35S]GTP-γ-S hCB1 EC50 (nM ± SEM).
[8] abbreviates: Table 10, repeated experiment, read-out: [35S]GTP-γ-S hCB2 EC50.
[9] abbreviates: Table 7, relative to the efficacy of CP55940.

With `O=C(N/N=C1\C(=O)N(Cc2ccc(Cl)cc2)c2ccccc21)c1ccccc1` [Example 26, N′-[(3Z)-1-(4-chlorobenzyl)-2-oxo-1,2-dihydro-3H-indol-3-ylidene]benzohydrazide], the inhibition at 1 µM in assay [1] was determined as 94.5 ± 0.8%; in assay [3] it was 22 ± 1.6%. In addition, the EC50 amounted to 131 ± 1.7 nM in assay [2] (setting [5]) and 895.6 ± 1.2 nM in assay [4] (setting [7]). Also, the Emax in assay [2] (setting [6]) was 39.8%; in assay [4] (setting [6]), 72%.

In the case of `CCCCCN1C(=O)/C(=N\NC(=O)c2ccccc2)c2ccccc21` [Example 23, N′-[(3Z)-1-(1-pentyl)-2-oxo-1,2-dihydro-3H-indol-3-ylidene]benzohydrazide], the inhibition at 1 µM stood at 95 ± 0.9% in assay [1] and 80 ± 0.9% in assay [3]. Besides, the EC50 came out at 240 ± 3.2 nM in assay [2] (setting [5]) and 314.1 ± 1.6 nM in assay [4] (setting [7]). Besides, the Emax turned out to be 68.5% in assay [2] (setting [6]) and 95.1% in assay [4] (setting [6]).

Take `CCCCN1C(=O)/C(=N\NC(=O)c2ccccc2)c2ccc(OC)cc21` [Example 40, N′-[(3Z)-1-butyl-6-methoxy-2-oxo-1,2-dihydro-3H-indol-3-ylidene]benzohydrazide]: the Emax in assay [2] (Table 10, repeated experiment) was -95%. For the same compound, in assay [2] (setting [8]), the EC50 worked out at 85 nM.

The compound `CCCCCCN1C(=O)/C(=N\NC(=O)c2ccccc2)c2ccc(OC)cc21` [Example 36, N′-[(3Z)-1-hexyl-6-methoxy-2-oxo-1,2-dihydro-3H-indol-3-ylidene]benzohydrazide] came in with an EC50 in assay [2] of 85 nM. Also, the Emax in assay [2] (Table 10, repeated experiment) is -95%.

`CCCCCCN1C(=O)/C(=N\NC(=O)c2ccc(OC)cc2)c2ccccc21` [Example 17, N′-[(3Z)-1-hexyl-2-oxo-1,2-dihydro-3H-indol-3-ylidene]-4-methoxybenzohydrazide]: the inhibition at 1 µM in assay [1] turned out to be 81.7 ± 1.1%; in assay [3], 56 ± 5.7%. Besides, the figures for the EC50 in assay [2] (setting [5]) and in assay [4] (setting [7]) were 143 ± 2.6 nM and 852 ± 1.2 nM, respectively. In addition, the figures for the Emax in assay [2] (setting [6]) and in assay [4] (setting [6]) were 49.5% and 71%, respectively.

`CCCCCCN1C(=O)/C(=N\NC(=O)C2CCCCC2)c2ccccc21` [Example 11, N′-[(3Z)-1-hexyl-2-oxo-1,2-dihydro-3H-indol-3-ylidene]cyclohexanecarbohydrazide]: the inhibition at 1 µM in assay [1] amounted to 65.8 ± 0.2%; in assay [3], 61 ± 2.1%. In assay [2] (setting [5]), the EC50 turned out to be 79.1 ± 1.5 nM. For the same compound, in assay [2] (setting [6]), the Emax amounted to 58%. Besides, the Emax at 3 µM in assay [4] (read-out: [35S]GTP-γ-S hCB1 Emax (%), Table 9 footnote a: Efficacy determined at 3 μM, relative to CP 55,940) was determined as 40.9%.

On to `CCCCCN1C(=O)/C(=N\NC(=O)c2ccccc2)c2ccc(OC)cc21` [Example 39, N′-[(3Z)-6-methoxy-1-pentyl-2-oxo-1,2-dihydro-3H-indol-3-ylidene]benzohydrazide], for which, in assay [2] (Table 10, repeated experiment), the Emax was -108%. Moreover, the EC50 in assay [2] (setting [8]) is 5.8 nM.

Regarding `CCCCCCN1C(=O)/C(=N\NC(=O)c2ccccc2)c2cc(F)ccc21` [Example 33, N′-[(3Z)-5-fluoro-1-hexyl-2-oxo-1,2-dihydro-3H-indol-3-ylidene]benzohydrazide], the values for the inhibition at 1 µM in assay [1] and in assay [3] were 57 ± 0.7% and 46 ± 1.7%, respectively. For the same compound, the EC50 in assay [2] (setting [5]) amounted to 186.9 ± 1.7 nM. The Emax in assay [2] (setting [6]) amounted to 33.8%.

In the case of `COc1ccc2c(c1)N(CCC1CCCCC1)C(=O)/C2=N\NC(=O)c1ccccc1` [Example 41, N′-[(3Z)-1-(2-cyclohexylethyl)-6-methoxy-2-oxo-1,2-dihydro-3H-indol-3-ylidene]benzohydrazide], the Emax in assay [2] (Table 10, repeated experiment) was -104%. In assay [2] (setting [8]), the EC50 was 540 nM.

On to `CCCCCCN1C(=O)/C(=N\NC(=O)c2ccccc2)c2cccc(C)c21` [Example 28, N′-[(3Z)-1-hexyl-7-methyl-2-oxo-1,2-dihydro-3H-indol-3-ylidene]benzohydrazide], for which the results for the inhibition at 1 µM in assay [1] and in assay [3] were 67 ± 1.6% and 68 ± 3.7%, respectively. Moreover, in assay [2] (setting [5]), the EC50 worked out at 84 ± 2.2 nM. Further, the Emax in assay [2] (setting [6]) was 34.2%.

For the compound `CCCCCCN1C(=O)/C(=N\NC(=O)c2ccccc2)c2cccc(Cl)c21` [Example 29, N′-[(3Z)-7-chloro-1-hexyl-2-oxo-1,2-dihydro-3H-indol-3-ylidene]benzohydrazide], the inhibition at 1 µM is 60 ± 1% in assay [1] and 29 ± 4.5% in assay [3]. The EC50 in assay [2] (setting [5]) was found to be 645.5 ± 1.3 nM. The Emax in assay [2] (setting [6]) is 64.8%.

Turning to `CCCN1C(=O)/C(=N\NC(=O)c2ccccc2)c2ccccc21` [Example 21, N′-[(3Z)-1-(1-propyl)-2-oxo-1,2-dihydro-3H-indol-3-ylidene]benzohydrazide], the inhibition at 1 µM in assay [1] was found to be 43 ± 1.2%; in assay [3], 32 ± 3.6%. In addition, the EC50 in assay [2] (setting [5]) was 200.7 ± 1.5 nM. In addition, the Emax in assay [2] (setting [6]) stood at 61.4%.

For `CCCCCCN1C(=O)/C(=N\NC(=O)c2ccccc2)c2cccc(I)c21` [Example 30, N′-[(3Z)-1-hexyl-7-iodo-2-oxo-1,2-dihydro-3H-indol-3-ylidene]benzohydrazide], the inhibition at 1 µM in assay [1] was 61 ± 2.5%; in assay [3], 66 ± 3.2%. Further, the Emax at 3 µM in assay [2] (read-out: [35S]GTP-γ-S hCB2 Emax (%), Table 9 footnote a: Efficacy determined at 3 μM, relative to CP 55,940) was 55%.

For `COc1ccc2c(c1)N(Cc1ccccc1)C(=O)/C2=N\NC(=O)c1ccccc1` [Example 38, N′-[(3Z)-1-benzyl-6-methoxy-2-oxo-1,2-dihydro-3H-indol-3-ylidene]benzohydrazide], the Emax in assay [2] (Table 10, repeated experiment) is -96%. In addition, the EC50 in assay [2] (setting [8]) worked out at 102 nM.

Consider `CCCCCCC(C)(C)c1ccc([C@@H]2C[C@H](O)CC[C@H]2CCCO)c(O)c1` [CP55,940, reference compound], for which the Emax in assay [2] (setting [9]), in assay [2] (setting [6]), in assay [4] (setting [9]) and in assay [4] (setting [6]) was 100% each time.

With `COc1ccc2c(c1)N(CC1CCCCC1)C(=O)/C2=N\NC(=O)c1ccccc1` [Example 37, N′-[(3Z)-1-(cyclohexylmethyl)-6-methoxy-2-oxo-1,2-dihydro-3H-indol-3-ylidene]benzohydrazide], the Emax in assay [2] (Table 10, repeated experiment) was -82%; in assay [4] (Table 10, repeated experiment), 40.8%. Besides, the EC50 amounted to 18 nM in assay [2] (setting [8]) and 61.2 nM in assay [4] (Table 10, repeated experiment, read-out: [35S]GTP-γ-S hCB1 EC50).
